From US20210115018A1, “PIPERIDINE COMPOUNDS AS COVALENT MENIN INHIBITORS” (THE REGENTS OF THE UNIVERSITY OF MICHIGAN, priority 2018, published 2021)

Key:
[1] = tested on: MOLM13; assay: 7-day proliferation assay (WST-8), cell growth inhibition; assay type: cell-based; conditions: Homo sapiens, MOLM-13, 168 h, MOLM13 cells, 7 days
Summary of the method: (§1)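 Cells seeded at 2,000-3,000/well were exposed to serially diluted compound for 7 days at 37° C., 5% CO2. Viability was read by WST-8 absorbance at 450 nm after 1-2 h color development; readings normalized to DMSO-treated cells, IC50 by four-parameter nonlinear regression.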

[2] = tested on: MV4-11; assay: as above; assay type: cell-based; conditions: Homo sapiens, MV4-11, 168 h, MV4-11 cells, 7 days
Summary of the method: as §1

SMILES	IC50 [1] [nM]	IC50 [2] [nM]
C=CC(=O)N1CCOC[C@@H](S(=O)(=O)c2ccc(N3CC(C)(CN4CCC([C@@](CNC(=O)OC)(c5cccc(F)c5)[C@H]5CCC[C@@H]5NC(=O)OC)CC4)C3)c(F)c2)C1 [compound 181]	< 500	< 50
C=CC(=O)N1CCOC[C@@H](S(=O)(=O)c2ccc(N3CC(CN4CCC([C@@](Cn5ccnn5)(c5cccc(F)c5)[C@H]5CCC[C@@H]5NC(=O)OC)CC4)C3)c(F)c2)C1 [compound 182]	< 100	< 10
C=CC(=O)N1CCOC[C@@H](S(=O)(=O)c2ccc(N3CC(F)(CN4CCC([C@@](Cn5ccnn5)(c5cccc(F)c5)[C@H]5CCC[C@@H]5NC(=O)OC)CC4)C3)c(F)c2)C1 [compound 184]	< 500	< 500
C=CC(=O)N1CCOC[C@@H](S(=O)(=O)c2ccc(N3CC(C)(CN4CCC([C@@](Cn5ccnn5)(c5cccc(F)c5)[C@H]5CCC[C@@H]5NC(=O)OC)CC4)C3)c(F)c2)C1 [compound 185]	< 1000	< 100
C=CC(=O)N1CCCC[C@@H](S(=O)(=O)c2ccc(N3CC(CN4CCC([C@@](CNC(=O)OC)(c5cccc(F)c5)[C@H]5CCC[C@@H]5NC(=O)OC)CC4)C3)c(F)c2)C1 [compound 186]	< 50	< 50
C=CC(=O)Nc1cccc(S(=O)(=O)c2ccc(N3CC(CN4CCC([C@@](CN5CCC5)(c5cccc(F)c5)[C@H]5CCC[C@@H]5NC(=O)OC)CC4)(OC)C3)c(F)c2)c1 [compound 187]	< 10	< 10
C=CC(=O)Nc1cccc(S(=O)(=O)c2ccc(N3CC(CN4CCC([C@@](CN5CCC5)(c5cccc(F)c5)[C@H]5CCC[C@@H]5NC(=O)OC)CC4)(OC)C3)cc2)c1 [compound 188]	< 10	< 10
C=CC(=O)N1CCC[C@@H](S(=O)(=O)c2ccc(N3CC(CN4CCC([C@@](CNC(C)=O)(c5cccc(F)c5)[C@H]5CCC[C@@H]5NC(=O)OC)CC4)C3)cc2)C1 [compound 199]	< 50	< 50
C=CC(=O)N1CCC[C@@H](S(=O)(=O)c2ccc(N3CC(O)(CN4CCC([C@@](CNC(C)=O)(c5cccc(F)c5)[C@H]5CCC[C@@H]5NC(=O)OC)CC4)C3)cc2)C1 [compound 205]	< 500	< 500
C=CC(=O)N1CCC[C@@H](S(=O)(=O)c2ccc(N3CC(CN4CCC([C@@](CN5CCC5)(c5cccc(F)c5)[C@H]5CCC[C@@H]5NC(=O)OC)CC4)C3)cc2CN2CC(F)C2)C1 [compound 208]	< 50	< 50
C=CC(=O)N1CCC[C@@H](S(=O)(=O)c2ccc(N3CC(CN4CCC([C@@](CN5CCC5)(c5cccc(F)c5)[C@H]5CCC[C@@H]5NC(=O)OC)CC4)(OC)C3)cc2)C1 [compound 212]	< 100	< 50
C=CC(=O)N1CCOC[C@H](S(=O)(=O)c2ccc(N3CC(C)(CN4CCC([C@@](CN5CCC5)(c5cccc(F)c5)[C@H]5CCC[C@@H]5NC(=O)OC)CC4)C3)cc2)C1 [compound 213]	< 100	< 50
C=CC(=O)N1CCOC[C@@H](S(=O)(=O)c2ccc(N3CC(C)(CN4CCC([C@@](CN5CCC5)(c5cccc(F)c5)[C@H]5CCC[C@@H]5NC(=O)OC)CC4)C3)cc2)C1 [compound 214]	< 500	< 500
